# Assay: physchem
# Format: physicochemical
# Settings: organic solvent or mixture
# Method: A 22 L, 3 neck flask was equipped with an overhead stirrer, a N2 inlet, and a type-J Teflon® covered thermocouple. The flask was purged with N2 and charged with the crude alcohol 12 prepared above, acetonitrile (7 L) and triethylamine (1400 mL, 10.0 mol). The batch was cooled to ˜10° C.-15° C. using a cold water bath. To the resulting yellow-green suspension was added solid TBDMSCl (1125 g, 7.50 mol), portionwise over ˜20 minutes. The addition was mildly exothermic causing the internal reaction temperature to rise to ˜20° C. After the addition was complete the reaction was stirred overnight at 20° C. under an atmosphere of N2. The following morning the reaction was judged to be >95% complete by TLC or HPLC. The dark green reaction mixture was filtered through a plasticware filter pot (24″×11″) prepacked with gravity grade silica gel (3 kg-slurried in acetonitrile) and a top and bottom layer of celite 21 (500 grams each). The filter pot was rinsed with acetonitrile (10 L, ACS grade) prior to adding the reaction mixture to the pot. Once the reaction mixture containing green solids was added, the filter pot was rinsed with acetonitrile (80 L, ACS grade), collecting 10 L cuts. The washing operation was monitored by TLC until no more product was detected in the washings. This was concentrated in vacuo to afford 2.2 kg of crude which needed to be purified further by silica gel chromatography. […]
structure (smiles),measurement,setting,value
"CC(C)(C)[Si](C)(C)OCc1nc2cc3c(cc2c(=O)[nH]1)C(=O)CC3 [compound 7, 2-(t-Butyldimethylsiloxymethyl)-4,6-dioxo-3,4,7,8-tetrahydro-3H-cyclopenta[g]quinazoline]",solubility,solubility in 1:1 hexanes:ethyl acetate,15 mg/mL
same,solubility,solubility in ethyl acetate,~25 mg/mL

# Source: US8809526B2, “Synthesis of cyclopentaquinazolines” (ONYX Pharmaceuticals, Inc., priority 2010, dated 2014)
